Values of other authors, collected in US7670620B2, “Topical composition for the treatment of psoriasis and related skin disorders” (Bioderm, Inc., priority 2000, dated 2010).

System: fibroblasts
Details: in vitro; Karzel and Domenjoz 1971

Row | SMILES | Secretion of mucopolysaccharides by fibroblasts
1 | CC(=O)N[C@H]1C(O)O[C@H](CO)[C@@H](O)[C@@H]1O (stereo partly drawn) [N-acetylglucosamine] | also worked, but to a lesser degree
2 | CC(=O)N[C@H]1C(O)O[C@H](CO)[C@H](O)[C@@H]1O (stereo partly drawn) [N-acetylgalactosamine] | also worked, but to a lesser degree
3 | N[C@H]1C(O)O[C@H](CO)[C@@H](O)[C@@H]1O (stereo partly drawn) [glucosamine] | significantly increases secretion of mucopolysaccharides by fibroblasts
